Test results published in US11590453B2, “Membrane disinfectant” (Diversey, Inc., priority 2017, dated 2023).

Assay: pH of test solutions
Format: physicochemical

Measured: pH

O=[N+]([O-])O [Nitric Acid Solution, Nitric Acid]
2.00: solution of membrane compatibility test, Table 6 | solution of membrane compatibility test, Table 8 | solution of salt retention test, Table 7
